According to ChEMBL document CHEMBL1145244, “In vitro advanced antimycobacterial screening of isoniazid-related hydrazones, hydrazides and cyanoboranes: part 14” (2005):
Values after ≈ are worked out from the molar mass of the structure shown.

What was measured:
Format in all cases: functional
[1] = tested on: Mycobacterium tuberculosis; test: In vitro antimycobacterial activity against ethionamide-resistant Mycobacterium tuberculosis strain
[2] = tested on: Mycobacterium tuberculosis; test: In vitro antimycobacterial activity against isoniazid-resistant Mycobacterium tuberculosis strain
[3] = tested on: Mycobacterium tuberculosis; test: In vitro antimycobacterial activity against rifampin-resistant Mycobacterium tuberculosis strain
[4] = tested on: Mycobacterium tuberculosis; test: In vitro antimycobacterial activity against ethambutol-resistant Mycobacterium tuberculosis strain
[5] = tested on: Mycobacterium tuberculosis; test: In vitro antimycobacterial activity against thiacetazone resistant Mycobacterium tuberculosis strain
[6] = tested on: Mycobacterium tuberculosis; test: Minimum inhibitory concentration against isoniazid-resistant Mycobacterium tuberculosis strain

Row | SMILES | MIC [1] | MBC [2] | MIC [2] | MBC [3] | MIC [3] | MIC [4] | MIC [5] | MIC [6]
1 | C/C=N/NC(=O)c1ccncc1 | 0.375 µg/mL (≈ 2.3 µM) | > 0.75 µg/mL | > 0.75 µg/mL | 0.05 µg/mL (≈ 0.306 µM) | 0.05 µg/mL (≈ 0.306 µM) | 0.025 µg/mL (≈ 0.153 µM) | > 0.75 µg/mL | –
2 | NNC(=O)c1ccncc1 [ISONIAZID] | – | > 1.6 µg/mL | – | – | – | – | – | > 0.2 µg/mL
3 | O=C(N/N=C/c1ccc(C(F)(F)F)cc1)c1ccncc1 | 1.6 µg/mL (≈ 5.46 µM) | > 1.6 µg/mL | > 1.6 µg/mL | 0.4 µg/mL (≈ 1.36 µM) | 0.2 µg/mL (≈ 0.682 µM) | 0.2 µg/mL (≈ 0.682 µM) | > 1.6 µg/mL | –
4 | N#CC[n+]1ccc(C(=O)NNCc2ccccc2)cc1 | > 25 µg/mL | > 25 µg/mL | > 25 µg/mL | – | – | 6.25 µg/mL | > 25 µg/mL | –
5 | C/C(=N\NC(=O)c1ccncc1)c1cccc(/C(C)=N/NC(=O)c2ccncc2)n1 | > 12.5 µg/mL | 12.5 µg/mL (≈ 31.1 µM) | > 12.5 µg/mL | 6.25 µg/mL (≈ 15.6 µM) | ≤ 0.2 µg/mL | ≤ 0.2 µg/mL | > 12.5 µg/mL | –
6 | N#CC[n+]1ccc(C(=O)NNCC(F)(F)F)cc1 | > 25 µg/mL | > 25 µg/mL | > 25 µg/mL | 6.25 µg/mL | 12.5 µg/mL | 12.5 µg/mL | > 25 µg/mL | –
7 | C/C(=N\NC(=O)c1ccncc1)C(F)(F)F | > 1.6 µg/mL | > 1.6 µg/mL | > 1.6 µg/mL | 0.2 µg/mL (≈ 0.865 µM) | 0.2 µg/mL (≈ 0.865 µM) | 0.2 µg/mL (≈ 0.865 µM) | > 1.6 µg/mL | –
